From US12637413B2, “Fatty acid amide hydrolase (FAAH) cleavable prodrugs of thyromimetics and combination with peripherally restricted FAAH inhibitors” (Autobahn Therapeutics, Inc., priority 2021, dated 2026)

How the values were obtained:
[1] = target: T1, recombinant human FAAH (rhFAAH) (Homo sapiens, UniProt O00519); experiment: FAAH substrate evaluation (acid metabolite formation); type: biochemical; details: observed rate constant for acid metabolite formation; 0.5 ng/μL rhFAAH, 1 μM test compound, room temperature, 0-60 minutes
T1 construct: purchased Cayman Chemical (Ann Arbor, MI, USA)
T1 sequence (O00519 1-579): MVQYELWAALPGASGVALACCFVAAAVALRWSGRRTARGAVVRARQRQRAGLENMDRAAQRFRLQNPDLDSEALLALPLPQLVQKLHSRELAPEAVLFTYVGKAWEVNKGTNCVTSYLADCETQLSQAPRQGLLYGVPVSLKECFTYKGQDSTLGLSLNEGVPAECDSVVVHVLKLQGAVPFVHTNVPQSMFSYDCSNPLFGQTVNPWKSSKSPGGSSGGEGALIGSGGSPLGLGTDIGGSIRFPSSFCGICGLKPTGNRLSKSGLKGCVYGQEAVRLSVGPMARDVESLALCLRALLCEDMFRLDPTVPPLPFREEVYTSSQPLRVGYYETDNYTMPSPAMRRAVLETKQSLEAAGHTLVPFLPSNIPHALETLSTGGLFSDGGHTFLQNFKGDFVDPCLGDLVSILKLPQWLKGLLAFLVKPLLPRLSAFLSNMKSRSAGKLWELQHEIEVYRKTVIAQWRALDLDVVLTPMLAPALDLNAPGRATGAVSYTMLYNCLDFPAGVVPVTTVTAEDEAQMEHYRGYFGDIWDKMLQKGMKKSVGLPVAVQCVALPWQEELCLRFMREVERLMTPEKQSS

T4 = experiment: plasma T4 (ELISA) after 7 days PO QD dosing; type: in vivo, Female C57BL/6 mice; details: Mus musculus; effects on plasma T4, PO QD 7 days, 4 or 8 h after last dose
Method: Female C57BL/6 mice (n=5/group), 6-8 weeks old, were acclimated to the study room for at least 3 days before dose administration in the studies. Mice were dosed at 5 mL/kg based on most recent body weight, collected once for the duration of the study. Based on most recent body weight, collected once for the duration of the study, mice were placed into weight-matched treatment dosing cohorts. Mice were given a single administration of PFI or vehicle orally (PO) daily (n=5/group) for 7 days at time=−1 hour. Following the PFI (100 μg/kg) or vehicle dose (10 mL/kg, p.o.), animals were given test article daily at time=0 hour. […] RNA from samples harvested 4 hours after final dose was quantified using a hybridization-based in situ RNA quantification method (NanoString, Seattle, WA), as described below. RNA from samples harvested 8 hours after final dose was quantified using a hybridization-based in situ RNA quantification method (QuantiGene Plex), as described below. […]
T4 was measured in terminal plasma samples using an ELISA kit (Biovision, Inc., Thyroxine [T4] [Mouse/Rat] ELISA Kit, Cat #: K7421-100). […] Absorbance was read at 450 nm within 15 min of addition of the Stop Solution using a Varioskan Lux plate reader (ThermoFisher Scientific, Carlsbad, CA). […] Unknown sample concentrations were determined using GraphPad Prism software (GraphPad Prism 9.0.2, GraphPad Software, San Diego, CA). […]

`CNC(=O)COc1cc(Cl)c(Cc2ccc(O)c(C(C)C)c2)c(Cl)c1` [Compound 1] was tested, and the ke [1] was “A (ke is more than or equal to 0.1)” and the ED50 (T4) was 3.4 µg/kg.
